Reference: patent publication US10722505B2, “Substituted 2,4 diamino-quinoline as new anticancer agents” (GENOSCIENCE PHARMA, priority 2014, dated 2020)
Counter-ions that a name gives are not always drawn.

Columns and labels:
MOLM-14 cell line [1] = experiment: CellTiter-Glo growth inhibition assay, MOLM-14 (Example 6); assay type: cell-based, human; details: MOLM-14, 72 h, method of Example 6
Protocol: MOLM-14 cell line was cultured in MEM alpha medium supplemented with 10% v/v Fetal Bovine Serum, 1% Penicillin-Streptomycin and maintained at 37° C. with 5% CO2. 10,000 cells were plated onto 96-well plates immediately before the assay.
Each compound was added at different concentrations (combinations of six concentrations) to each well, and cell cultures were incubated for 72 h. Vehicle (H2O) was used as a control, and all compounds were tested in a constant percentage of vehicle. Cell outgrowth was measured using the CellTiter-Glo® luminescent cell viability assay as described by the manufacturer (Promega, Ref G7571 Madison, Wis., USA) using a Centro (Berthold, France) plate reader.
In each experiment, each point represents the average of triplicates in cell culture.
(§1) The experimental data are analyzed using a computer program, Graphpad Prism v5 (GraphPad Software, Inc. La Jolla, Calif.) and EC50 values were determined as the dose of compound required to reduce absorbance values to 50% of the signal obtained for vehicle treated cell cultures.

[2] = system: ALDH+ (CSC) population of MOLM-14 cell line; experiment: Aldefluor kit assay, ALDH+ compartment in MOLM-14; assay type: cell-based, human; details: 72 h, control = 100
Source text: Analysis of the of aldehyde dehydrogenase (ALDH) compartment and high activity level of aldehyde dehydrogenase activity (ALDH+) was used to detect tumor initiating cells (cancer stem cells, CSC) population. The Aldefluor™ kit assay (StemCell Technologies, 01700) allowed to assess the activity of drugs on CSC cells like in a MOLM-14 acute myeloid leukemia cell line population (ref: Storms, R. W., Trujillo, A. P., Springer, J. B., Shah, L., Colvin, O. M., Ludeman, S. M., & Smith, C. (1999). Isolation of primitive human hematopoietic progenitors on the basis of aldehyde dehydrogenase activity. Proceedings of the National Academy of Sciences, 96(16), 9118-9123). The Aldefluor™ kit assay was used according to the procedure described by the manufacturer. Briefly, MOLM-14 cell line was cultured in MEM alpha medium supplemented with 10% v/v Fetal Bovine Serum, 1% Penicillin-Streptomycin and maintained at 37° C. with 5% CO2. 5·10^5 cells were used in this assay. Each compound was added at different concentrations (see table 8), and cell cultures were incubated for 72 h. Vehicle (H2O) was used as a control, and all compounds were tested in a constant percentage of vehicle. Cells obtained from cell culture were incubated for 45 minutes at 37° C. with Aldefluor™ buffer assay containing the Bodipy™-aminoacetaldehyde, a fluorescent ALDH aldehyde substrate. ALDH converts the fluorescent substrate BAAA to the Bodipy™-aminoacetic acid (BAA) which is retained in the cell. An active efflux inhibitor is present in the Adelfluor™ assay buffer in order to avoid the active efflux from the cell of the substrate product ALDH dependent converted BAA. The fluorescent signal is directly proportional to the ALDH activity in the cells and is measured by flow cytometry. A negative control is used to measure the background fluorescence level. For such purpose, 4-(N,N-diethylamino)-benzaldehyde (DEAB) was used as selective ALDH inhibitor. A viability cell count was performed using LIVE/DEAD® Fixable Far Red Dead Cell Stain Kit (Invitrogen). The experimental data are analyzed using a computer program, Graphpad Prism v5 (GraphPad Software, Inc. La Jolla, Calif.) and EC50 values were determined as the dose of compound required to reduce absorbance values to 50% of the signal obtained for vehicle treated cell cultures.

[3] = system: LI1098 HCC patient derived cells; experiment: CellTiter-Glo growth inhibition, HCC patient-derived cells LI1098; assay type: cell-based, human; details: LI1098, 72 hours
Protocol: (§2) The patient derived Hepatocellular Carcinoma (HCC) cells were maintained in medium respectively described in table 15 containing 1% penicillin-streptomycin (Life Technologies, 15070-063), with a supplements for primary cell culture (PCS) containing hydrocortisone (50 nM), Epidermal Growth Factor (20 ng/ml), β-fibroblast Growth Factor (10 ng/ml), Heparin (2 μg/ml) ITS liquid media supplement (1×) and non-essential amino acid (NEAA, 0.01 mM, 1×). The primary cell were cultured in a humidified atmosphere (95% relative humidity) with 5% CO2 at 37° C.
(§3) The cell growth inhibition assay was performed as described previously in example 5 using the CellTiter-Glo® luminescent cell viability assay as described by the manufacturer (Promega, Ref G7571). The number of cells seeded per well (in 96-Well Flat Clear Bottom Black Polystyrene TC-Treated Microplates, Cat #3340, Corning®) is described in the table 16. A backseal black sticker (Cat #6005189, Perkin Elmer) was placed to the bottom of each plate before recording CellTiter-Glo® luminescence.
as §1, with “V 5.0” for “v5”, “cultures and were a mean of at least three independent experiments.” for “cultures.”

[4] = system: LI0574 HCC patient derived cells; experiment: CellTiter-Glo growth inhibition, HCC patient-derived cells LI0574; assay type: cell-based, human; details: LI0574, 72 hours
Protocol: as §2, §3
as §1, with “V 5.0” for “v5”, “cultures and were a mean of at least three independent experiments.” for “cultures.”

[5] = system: LI0050 HCC patient derived cells; experiment: CellTiter-Glo growth inhibition, HCC patient-derived cells LI0050; assay type: cell-based, human; details: LI0050, 72 hours
Protocol: as §2, §3
as §1, with “V 5.0” for “v5”, “cultures and were a mean of at least three independent experiments.” for “cultures.”

[6] = system: LI0801 HCC patient derived cells; experiment: CellTiter-Glo growth inhibition, HCC patient-derived cells LI0801; assay type: cell-based, human; details: LI0801, 72 hours
Protocol: as §2, §3
as §1, with “V 5.0” for “v5”, “cultures and were a mean of at least three independent experiments.” for “cultures.”

[7] = system: LI1005 HCC patient derived cells; experiment: CellTiter-Glo growth inhibition, HCC patient-derived cells LI1005; assay type: cell-based, human; details: LI1005, 72 hours
Protocol: as §2, §3
as §1, with “V 5.0” for “v5”, “cultures and were a mean of at least three independent experiments.” for “cultures.”

[8] = system: LI1646 HCC patient derived cells; experiment: CellTiter-Glo growth inhibition, HCC patient-derived cells LI1646; assay type: cell-based, human; details: LI1646, 72 hours
Protocol: as §2, §3
as §1, with “V 5.0” for “v5”, “cultures and were a mean of at least three independent experiments.” for “cultures.”

[9] = system: LI0612 HCC patient derived cells; experiment: CellTiter-Glo growth inhibition, HCC patient-derived cells LI0612; assay type: cell-based, human; details: LI0612, 72 hours
Protocol: as §2, §3
as §1, with “V 5.0” for “v5”, “cultures and were a mean of at least three independent experiments.” for “cultures.”

[10] = system: LI0752 HCC patient derived cells; experiment: CellTiter-Glo growth inhibition, HCC patient-derived cells LI0752; assay type: cell-based, human; details: LI0752, 72 hours
Protocol: as §2, §3
as §1, with “V 5.0” for “v5”, “cultures and were a mean of at least three independent experiments.” for “cultures.”

MOLM-14 cell line [11] = experiment: CellTiter-Glo cell viability / growth inhibition assay, MOLM-14 (Example 5); assay type: cell-based; details: Homo sapiens, MOLM-14, 72 h
Protocol: All cell lines were maintained in medium containing 1% penicillin-streptomycin (Dutscher, P06-07100) and 10% Fetal Bovine Serum (Gibco, W3387L) except 20% for KG-1 cell line and PBMC, and cultured at 37° C. with 5% CO2.
MOLM-14 cell line was maintained in MEM alpha medium (Gibco, 22561-021).
Cell viability was measured using the CellTiter-Glo® luminescent cell viability assay as described by the manufacturer (Promega, Ref G7571) using an Infinite F200Pro luminometer (Tecan). Briefly, for adherent cells, cells were plated onto 96-well plates (white with clear bottom) in 90 μL of media per well and were allowed to grow overnight before the assay. For cells growing in suspension, cells were plated onto 96-well plates immediately before the assay.
Compounds were added at different concentrations to each well, and cell cultures were incubated for 72 h. Vehicle (H2O) was used as a control, and all compounds were tested in a constant percentage of H2O. After addition of 100 μL of CellTiter-Glo®, luminescence was measured using an Infinite F200Pro (Tecan). EC50 values were determined as the dose of compound required to reduce luminescent values to 50% of the signal obtained for untreated cell cultures. The experimental data were analyzed using a computer program, Graphpad Prism v5 (GraphPad Software, Inc. La Jolla, Calif.).
All experiments were at least done in duplicate and repeated two independent times.

`Nc1ccn([C@@H]2O[C@H](CO)[C@@H](O)[C@@H]2O)c(=O)n1` [Cytarabin, reference compound] was tested, and the EC50 (MOLM-14 cell line [1]) was 0.29 µM, the “ALdefluor positive CSCs (%)” value ([2]; MOLM-14, 1 μM) was 130% and the “ALdefluor positive CSCs (%)” value ([2]; MOLM-14, 3 μM) was 116%.
For `N.N.[Cl][Pt][Cl]` [Cisplatin], the EC50 [3] was 5.1 µM, the EC50 [4] was 3.6 µM and the EC50 [5] was 1.3 µM. For the same molecule, the EC50 [6] was 1.5 µM, the EC50 [7] was 5.9 µM and the EC50 [8] was 10 µM. For the same molecule, the EC50 [9] was 16.3 µM and the EC50 [10] was 2.6 µM.
`CC(C)(C)NC1CCN(c2cc(Nc3ccc(Cl)cc3)nc3ccccc23)CC1` [Compound 1-6, 2-(4-chlorophenylamino)-4-(4-tert-butylaminopiperidin-1-yl)-quinoline hydrochloride salt] showed a viability at 4 µM (MOLM-14 cell line [11]) of 71.8% and a viability at 10 µM (MOLM-14 cell line [11]) of 12.1%.
For `Cc1cc(Nc2cc(N3CCC(NC(C)(C)C)CC3)c3ccccc3n2)ccc1Nc1ncccn1` [Compound 3-5, 2-[3-methyl-4-(pyrimidin-2-ylamino)phenylamino]-4-(4-tert-butylaminopiperidin-1-yl)-quinoline hydrochloride salt], the viability at 4 µM (MOLM-14 cell line [11]) was 78.7% and the viability at 10 µM (MOLM-14 cell line [11]) was 8.7%.
